From patent US20230092001A1, “FURANEOL GLYCOSIDE COMPOUND, PHARMACEUTICAL COMPOSITION THEREOF, PREPARATION METHOD THEREFOR, AND APPLICATION THEREOF” (priority 2019, published 2023)

Assays:
[1] = tested on: ulcerative colitis model (dextran sodium sulphate); experiment: Effect example 2: therapeutic effect on ulcerative colitis, dextran sodium sulphate model, oral gavage, 14 days; type: in vivo, C57 mice; settings: treatment group 40 mg/kg oral gavage
Method: Thirty-five 10-week-old male C57 mice, SPF class animal house, temperature 20-26° C., humidity 40%-70%, alternating light-dark periods (12 h/12 h).
(§1) Quarantine-qualified animals with similar weights were selected for the experiment.
Mice in the blank control group were given normal drinking water throughout the experiment. The other 6 groups of mice were given drinking water containing 2% dextran sodium sulphate from day 1 to day 5, normal drinking water from day 6 to day 7, drinking water containing 2% dextran sodium sulphate from day 8 to day 12, and normal drinking water from day 13 to day 14. The experiment ended on day 14. All groups were administered by oral gavage once a day according to table 7, until the end of the experiment on day 14.
(§2) (1) The mice were weighed daily.
(2) Blood samples were collected from the orbital vein on day 14 and stored at −80° C.
(3) On day 14, the mice were sacrificed by cervical vertebra dislocation, the colon was removed and a small amount of fecal was taken from the colon and left as a sample. The colon length and colon weight were measured. A portion of the colon and the fecal sample was stored at −80° C.

[2] = tested on: ulcerative colitis model (dextran sodium sulphate); experiment: Effect Example 3: therapeutic effect on ulcerative colitis, dextran sodium sulphate model, oral gavage, 7 days; type: in vivo, C57 mice; settings: 40 mg/kg oral gavage
Method: Fifty 10-week-old male C57 mice, SPF class animal house, temperature 20-26° C., humidity 40%-70%, alternating light-dark periods (12 h/12 h).
as §1
Mice in the blank control group were given normal drinking water throughout the experiment. The other 9 groups of mice were given drinking water containing 2% dextran sodium sulphate from day 1 to day 7. All groups were administered by oral gavage once a day according to table 10, until the end of the experiment.
as §2
(2) Blood samples were collected from the orbital vein on day 7 and stored at −80° C.
(3) On day 7, the mice were sacrificed by cervical vertebra dislocation, the colon was removed and a small amount of fecal was taken from the colon and left as a sample. The colon length and colon weight were measured. A portion of the colon and the fecal sample was stored at −80° C.

In the case of `CC(=O)OC[C@H]1O[C@@H](OC2=C(C)OC(=C(C)C)C2=O)[C@H](OC(C)=O)[C@@H](OC(C)=O)[C@@H]1OC(C)=O` [Compound I-2, 4-O-[(2,3,4,6-tetra-O-acetyl)-β-D-glucosyl]-5-methyl-2-(1-methylethylidene)-3(2H)-furanone], the “Average weight of mice” value ([1]; Day 1) is reported as 26.86 g, the “Average weight of mice” value ([1]; Day 2) is reported as 26.9 g and the “Average weight of mice” value ([1]; Day 3) is reported as 26.82 g. The “Average weight of mice” value ([1]; Day 4) was 26.86 g, the “Average weight of mice” value ([1]; Day 5) was 26.58 g and the “Average weight of mice” value ([1]; Day 6) was 26.48 g. For the same compound, the “Average weight of mice” value ([1]; Day 7) was 25.18 g, the “Average weight of mice” value ([1]; Day 8) was 23.78 g and the “Average weight of mice” value ([1]; Day 9) was 23.64 g. The “Average weight of mice” value ([1]; Day 10) was 23.64 g, the “Average weight of mice” value ([1]; Day 11) was 24.72 g and the “Average weight of mice” value ([1]; Day 12) was 24.82 g. For the same compound, the “Average weight of mice” value ([1]; Day 13) was 24.8 g, the “Average weight of mice” value ([1]; Day 14) was 24.92 g and the “Average colon length of mice” value ([1]; day 14) was 6.2 cm. For the same compound, the “Average weight of mice” value ([2]; Day 1) was 21.53 g, the “Average weight of mice” value ([2]; Day 2) was 21.42 g and the “Average weight of mice” value ([2]; Day 3) was 21.25 g. For the same compound, the “Average weight of mice” value ([2]; Day 4) was 20.97 g, the “Average weight of mice” value ([2]; Day 5) was 20.72 g and the “Average weight of mice” value ([2]; Day 6) was 20.27 g. The “Average weight of mice” value ([2]; Day 7) was 19.27 g and the “Average colon length of mice” value ([2]; day 7) was 5.8 cm.
